Laboratory results as given in PMC8185074, “Anchor extension: a structure-guided approach to design cyclic peptides targeting enzyme active sites” (Nature Communications, 2021).
Like-named read-outs stand apart in the source and are kept apart here. Peptide text beside a SMILES is read from it.

What was measured:
Assay type in all cases: biochemical
[1] = target: T1, HDAC6 (Homo sapiens, UniProt Q9UBN7); experiment: HDAC6 inhibition, full IC50 measurement (Reaction Biology; fluorogenic p53 peptide RHKK(Ac)AMC)
T1 construct: purchased Reaction Biology Corporation (assay run by the CRO)
T1 sequence (Q9UBN7 1-1215): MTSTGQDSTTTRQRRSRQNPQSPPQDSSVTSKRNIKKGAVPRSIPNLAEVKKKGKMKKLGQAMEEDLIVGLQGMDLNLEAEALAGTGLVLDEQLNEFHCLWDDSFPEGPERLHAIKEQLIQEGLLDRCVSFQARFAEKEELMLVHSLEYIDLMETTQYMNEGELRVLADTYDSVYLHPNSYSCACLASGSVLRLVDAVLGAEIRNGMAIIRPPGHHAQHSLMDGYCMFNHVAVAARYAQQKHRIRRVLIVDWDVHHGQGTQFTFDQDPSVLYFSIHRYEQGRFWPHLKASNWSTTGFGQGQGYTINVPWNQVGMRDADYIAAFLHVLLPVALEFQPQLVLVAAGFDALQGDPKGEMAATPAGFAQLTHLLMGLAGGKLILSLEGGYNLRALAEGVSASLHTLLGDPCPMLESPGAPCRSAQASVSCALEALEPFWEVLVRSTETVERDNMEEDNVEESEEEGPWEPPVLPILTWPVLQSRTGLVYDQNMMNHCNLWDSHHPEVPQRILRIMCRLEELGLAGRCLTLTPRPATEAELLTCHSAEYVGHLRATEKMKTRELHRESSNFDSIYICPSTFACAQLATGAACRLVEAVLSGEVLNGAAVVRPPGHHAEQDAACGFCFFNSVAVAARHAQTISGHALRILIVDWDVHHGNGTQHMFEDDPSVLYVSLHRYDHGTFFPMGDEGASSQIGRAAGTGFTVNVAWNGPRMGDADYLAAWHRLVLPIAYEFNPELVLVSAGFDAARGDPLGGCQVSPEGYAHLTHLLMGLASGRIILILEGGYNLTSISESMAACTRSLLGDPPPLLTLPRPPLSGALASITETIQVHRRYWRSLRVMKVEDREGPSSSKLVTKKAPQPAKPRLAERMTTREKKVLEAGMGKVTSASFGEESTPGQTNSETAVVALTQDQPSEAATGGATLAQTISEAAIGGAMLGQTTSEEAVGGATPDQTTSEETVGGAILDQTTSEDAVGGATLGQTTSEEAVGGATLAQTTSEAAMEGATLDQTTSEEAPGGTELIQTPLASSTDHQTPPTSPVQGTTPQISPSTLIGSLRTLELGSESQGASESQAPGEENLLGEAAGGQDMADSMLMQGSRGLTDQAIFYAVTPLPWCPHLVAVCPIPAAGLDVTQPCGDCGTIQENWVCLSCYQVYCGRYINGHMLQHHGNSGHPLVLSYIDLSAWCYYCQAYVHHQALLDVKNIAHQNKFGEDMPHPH
Summary of the method: (§1)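 Reaction: enzyme plus acoustically dispensed peptide inhibitor, 50 μM RHKK(Ac)AMC substrate, pH 8.0 Tris buffer with BSA and 1% DMSO, 1 h, 30 °C. Duplicates averaged.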

[2] = target: T2, HDAC3 (Homo sapiens, UniProt O15379); experiment: HDAC3 inhibition, full IC50 measurement (Reaction Biology; fluorogenic p53 peptide RHKK(Ac)AMC)
T2 construct: purchased Reaction Biology Corporation (assay run by the CRO)
T2 sequence (O15379 whole entry): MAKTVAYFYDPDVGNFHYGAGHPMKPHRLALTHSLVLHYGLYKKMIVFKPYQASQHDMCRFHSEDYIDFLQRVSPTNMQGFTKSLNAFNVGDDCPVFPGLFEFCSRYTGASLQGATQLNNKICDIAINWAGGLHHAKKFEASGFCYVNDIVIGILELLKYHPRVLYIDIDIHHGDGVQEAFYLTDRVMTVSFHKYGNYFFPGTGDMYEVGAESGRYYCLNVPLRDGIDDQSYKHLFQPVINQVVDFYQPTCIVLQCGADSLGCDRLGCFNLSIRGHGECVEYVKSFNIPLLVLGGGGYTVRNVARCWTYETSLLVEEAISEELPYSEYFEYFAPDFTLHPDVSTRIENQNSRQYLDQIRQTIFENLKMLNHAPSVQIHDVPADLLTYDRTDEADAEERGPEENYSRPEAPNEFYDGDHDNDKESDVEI
T2 sequence (Q9Y618 395-489 partner limits assumed): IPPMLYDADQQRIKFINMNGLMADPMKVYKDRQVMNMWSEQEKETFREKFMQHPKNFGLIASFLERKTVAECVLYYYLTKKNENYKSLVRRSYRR
Summary of the method: as §1

[3] = target: T3, HDAC2 (Homo sapiens, UniProt Q92769); experiment: Initial HDAC2 IC50 estimate (BPS Biosciences HDAC fluorogenic assay kit)
T3 construct: purchased Reaction Biology Corporation (assay run by the CRO)
T3 sequence (Q92769 whole entry): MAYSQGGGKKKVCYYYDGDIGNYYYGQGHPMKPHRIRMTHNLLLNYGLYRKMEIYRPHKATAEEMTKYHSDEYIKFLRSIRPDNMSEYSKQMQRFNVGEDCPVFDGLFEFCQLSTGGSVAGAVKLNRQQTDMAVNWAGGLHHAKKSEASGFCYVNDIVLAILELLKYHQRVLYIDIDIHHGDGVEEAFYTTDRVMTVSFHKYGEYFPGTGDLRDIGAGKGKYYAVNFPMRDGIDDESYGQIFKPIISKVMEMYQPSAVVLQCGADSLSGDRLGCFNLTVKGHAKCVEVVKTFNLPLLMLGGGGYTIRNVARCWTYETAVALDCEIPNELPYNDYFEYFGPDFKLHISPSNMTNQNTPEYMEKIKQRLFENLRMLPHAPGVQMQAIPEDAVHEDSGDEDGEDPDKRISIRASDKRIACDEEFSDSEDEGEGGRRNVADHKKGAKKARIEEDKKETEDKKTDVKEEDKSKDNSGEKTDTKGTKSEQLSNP
Summary of the method: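 Inhibition measured by kit-based fluorogenic HDAC activity assays, with each point in duplicate or triplicate. Values come from a full 1 µM–100 pM series (1:10 steps) or are range estimates from just 20 nM and 200 nM.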

[4] = Supplementary Dataset 2, read-out: HDAC2 activity (initial activity)

NCCCC[C@@H]1NC(=O)[C@@H]2CCCN2C(=O)[C@H](CC(N)=O)NC(=O)[C@H](CCCCCS)NC(=O)CNC(=O)[C@H](Cc2c[nH]c3ccccc23)NC(=O)[C@@H](CCCCN)NC(=O)[C@H](CCC(N)=O)NC1=O [des1.1.0, SHA-Asn-Pro-Lys-Gln-dLys-Trp-Gly] (HELM PEPTIDE1{G.[O=C([C@H](CCCCCS)N[*:1])[*:2]].N.P.K.Q.[dK].W}$PEPTIDE1,PEPTIDE1,1:R1-8:R2$$$V2.0)
HDAC6 activity raw data (signal) ([1]; Conc. 1.00E-05 M, t1): 8262 | HDAC6 activity raw data (signal) ([1]; Conc. 1.00E-05 M, t2): -132 | HDAC6 activity raw data (signal) ([1]; Conc. 1.11E-06 M, t1): 22357 | HDAC6 activity raw data (signal) ([1]; Conc. 1.11E-06 M, t2): 16681 | HDAC6 activity raw data (signal) ([1]; Conc. 1.23E-07 M, t1): 128420 | HDAC6 activity raw data (signal) ([1]; Conc. 1.23E-07 M, t2): 107875 | HDAC6 activity raw data (signal) ([1]; Conc. 1.37E-08 M, t1): 427941 | HDAC6 activity raw data (signal) ([1]; Conc. 1.37E-08 M, t2): 374868 | HDAC6 activity raw data (signal) ([1]; Conc. 1.52E-09 M, t1): 599157 | HDAC6 activity raw data (signal) ([1]; Conc. 1.52E-09 M, t2): 570644 | HDAC6 activity raw data (signal) ([1]; Conc. 3.33E-06 M, t1): 12160 | HDAC6 activity raw data (signal) ([1]; Conc. 3.33E-06 M, t2): 5788 | HDAC6 activity raw data (signal) ([1]; Conc. 3.70E-07 M, t1): 52219 | HDAC6 activity raw data (signal) ([1]; Conc. 3.70E-07 M, t2): 39167 | HDAC6 activity raw data (signal) ([1]; Conc. 4.12E-08 M, t1): 251632 | HDAC6 activity raw data (signal) ([1]; Conc. 4.12E-08 M, t2): 228170 | HDAC6 activity raw data (signal) ([1]; Conc. 4.57E-09 M, t1): 511649 | HDAC6 activity raw data (signal) ([1]; Conc. 4.57E-09 M, t2): 482006 | HDAC6 activity raw data (signal) ([1]; Conc. 5.08E-10 M, t1): 622162 | HDAC6 activity raw data (signal) ([1]; Conc. 5.08E-10 M, t2): 563120 | IC50 ([1]; unit printed only in the axis title, read-out: HDAC6 IC50 (printed in dose-response picture)): 0.025 µM | HDAC3 activity raw data (signal) ([2]; Conc. 1.00E-05 M, t1): 5471 | HDAC3 activity raw data (signal) ([2]; Conc. 1.00E-05 M, t2): 9474 | HDAC3 activity raw data (signal) ([2]; Conc. 1.11E-06 M, t1): 58802 | HDAC3 activity raw data (signal) ([2]; Conc. 1.11E-06 M, t2): 66090 | HDAC3 activity raw data (signal) ([2]; Conc. 1.23E-07 M, t1): 406610 | HDAC3 activity raw data (signal) ([2]; Conc. 1.23E-07 M, t2): 410292 | HDAC3 activity raw data (signal) ([2]; Conc. 1.37E-08 M, t1): 1181819 | HDAC3 activity raw data (signal) ([2]; Conc. 1.37E-08 M, t2): 1197870 | HDAC3 activity raw data (signal) ([2]; Conc. 1.52E-09 M, t1): 1432990 | HDAC3 activity raw data (signal) ([2]; Conc. 1.52E-09 M, t2): 1448071 | HDAC3 activity raw data (signal) ([2]; Conc. 3.33E-06 M, t1): 23719 | HDAC3 activity raw data (signal) ([2]; Conc. 3.33E-06 M, t2): 26034 | HDAC3 activity raw data (signal) ([2]; Conc. 3.70E-07 M, t1): 182063 | HDAC3 activity raw data (signal) ([2]; Conc. 3.70E-07 M, t2): 201749 | HDAC3 activity raw data (signal) ([2]; Conc. 4.12E-08 M, t1): 761011 | HDAC3 activity raw data (signal) ([2]; Conc. 4.12E-08 M, t2): 799167 | HDAC3 activity raw data (signal) ([2]; Conc. 4.57E-09 M, t1): 1249527 | HDAC3 activity raw data (signal) ([2]; Conc. 4.57E-09 M, t2): 1277477 | HDAC3 activity raw data (signal) ([2]; Conc. 5.08E-10 M, t1): 1537856 | HDAC3 activity raw data (signal) ([2]; Conc. 5.08E-10 M, t2): 1472354 | IC50 [3, 4]: 0.01 to 0.1 µM

NCCCC[C@H]1NC(=O)[C@H](CCC(N)=O)NC(=O)[C@H](CCC(=O)O)NC(=O)[C@@H]2CCCN2C(=O)[C@H](CC(N)=O)NC(=O)[C@H](CCCCCS)NC(=O)CNC(=O)[C@H](Cc2c[nH]c3ccccc23)NC1=O [des1.1.1, SHA-Asn-Pro-Glu-Gln-dLys-Trp-Gly] (HELM PEPTIDE1{E.Q.[dK].W.G.[O=C([C@H](CCCCCS)N[*:1])[*:2]].N.P}$PEPTIDE1,PEPTIDE1,1:R1-8:R2$$$V2.0)
HDAC6 activity raw data (signal) ([1]; Conc. 1.00E-05 M, t1): 2105 | HDAC6 activity raw data (signal) ([1]; Conc. 1.11E-06 M, t1): 66521 | HDAC6 activity raw data (signal) ([1]; Conc. 1.11E-06 M, t2): 22362 | HDAC6 activity raw data (signal) ([1]; Conc. 1.23E-07 M, t1): 195275 | HDAC6 activity raw data (signal) ([1]; Conc. 1.23E-07 M, t2): 111620 | HDAC6 activity raw data (signal) ([1]; Conc. 1.37E-08 M, t1): 384422 | HDAC6 activity raw data (signal) ([1]; Conc. 1.37E-08 M, t2): 355429 | HDAC6 activity raw data (signal) ([1]; Conc. 1.52E-09 M, t1): 513045 | HDAC6 activity raw data (signal) ([1]; Conc. 1.52E-09 M, t2): 553965 | HDAC6 activity raw data (signal) ([1]; Conc. 3.33E-06 M, t1): 30608 | HDAC6 activity raw data (signal) ([1]; Conc. 3.70E-07 M, t1): 121302 | HDAC6 activity raw data (signal) ([1]; Conc. 3.70E-07 M, t2): 45275 | HDAC6 activity raw data (signal) ([1]; Conc. 4.12E-08 M, t1): 327835 | HDAC6 activity raw data (signal) ([1]; Conc. 4.12E-08 M, t2): 217932 | HDAC6 activity raw data (signal) ([1]; Conc. 4.57E-09 M, t1): 470518 | HDAC6 activity raw data (signal) ([1]; Conc. 4.57E-09 M, t2): 472349 | HDAC6 activity raw data (signal) ([1]; Conc. 5.08E-10 M, t1): 541421 | HDAC6 activity raw data (signal) ([1]; Conc. 5.08E-10 M, t2): 570888 | HDAC3 activity raw data (signal) ([2]; Conc. 1.00E-05 M, t1): 45806 | HDAC3 activity raw data (signal) ([2]; Conc. 1.00E-05 M, t2): 14609 | HDAC3 activity raw data (signal) ([2]; Conc. 1.11E-06 M, t1): 200334 | HDAC3 activity raw data (signal) ([2]; Conc. 1.11E-06 M, t2): 152988 | HDAC3 activity raw data (signal) ([2]; Conc. 1.23E-07 M, t1): 623414 | HDAC3 activity raw data (signal) ([2]; Conc. 1.23E-07 M, t2): 515219 | HDAC3 activity raw data (signal) ([2]; Conc. 1.37E-08 M, t1): 834270 | HDAC3 activity raw data (signal) ([2]; Conc. 1.37E-08 M, t2): 1063632 | HDAC3 activity raw data (signal) ([2]; Conc. 1.52E-09 M, t1): 943875 | HDAC3 activity raw data (signal) ([2]; Conc. 1.52E-09 M, t2): 1416606 | HDAC3 activity raw data (signal) ([2]; Conc. 3.33E-06 M, t1): 128090 | HDAC3 activity raw data (signal) ([2]; Conc. 3.33E-06 M, t2): 52786 | HDAC3 activity raw data (signal) ([2]; Conc. 3.70E-07 M, t1): 393148 | HDAC3 activity raw data (signal) ([2]; Conc. 3.70E-07 M, t2): 276336 | HDAC3 activity raw data (signal) ([2]; Conc. 4.12E-08 M, t1): 758574 | HDAC3 activity raw data (signal) ([2]; Conc. 4.12E-08 M, t2): 884895 | HDAC3 activity raw data (signal) ([2]; Conc. 4.57E-09 M, t1): 936051 | HDAC3 activity raw data (signal) ([2]; Conc. 4.57E-09 M, t2): 1217433 | HDAC3 activity raw data (signal) ([2]; Conc. 5.08E-10 M, t1): 935427 | HDAC3 activity raw data (signal) ([2]; Conc. 5.08E-10 M, t2): 1315263 | IC50 ([3]; Supp. Table 4, rough estimates, for promising hits full measurements, read-out: HDAC2 activity (initial values for HDAC2 IC50)): 0.192 µM | IC50 [3, 4]: 0.271 µM
